Measured values from patent publication US10179914B2, “CDC25A inhibitor for the treatment of drug resistant cancer or for the prevention of tumor relapse” (INSERM (INSTITUT NATIONAL DE LA SANTÉ ET DE LA RECHERCHE …, priority 2014, dated 2019).

Assays:
[1] = system: FLT3-ITD positive primary AML cells; assay: Clonogenic assay, FLT3-ITD positive primary AML cells; format: cell-based, human; details: 100 and 200 nM, day 7, semi-solid 5637 conditioned medium
Procedure: (c) Primary cells from patients were cultured in semi-solid medium to estimate their clonogenic potential as described in the Methods section, in the presence or the absence of IRC-083864 (100 and 200 nM). 6 FLT3-ITD positive (upper panel) and 4 FLT3-wild type (lower panel) AML primary samples were used for these experiments. Leukemic colonies were scored under an inverted microscope at day 7.
Patient samples. Patient AML samples were obtained after informed consent in accordance with the Declaration of Helsinki and stored at the HIMIP collection. According to the French law, HIMIP collection has been declared to the Ministry of Higher Education and Research (DC 2008-307 collection 1) and obtained a transfer agreement (AC 2008-129) after approbation by ethical committees (Comité de Protection des Personnes Sud-Ouest et Outremer II and APHP ethical committee). Clinical and biological annotations of the samples have been declared to the CNIL (Comité National Informatique et Libertés i.e. Data processing and Liberties National Committee). Frozen cells were thawed in IMDM medium with 20% FBS and immediately processed for treatment. All patients were diagnosed at the Department of Hematology of Toulouse University Hospital.
Clonogenic assay. […] Leukemic colonies were then scored under an inverted microscope.

[2] = biological target: T1, Cdc25B (Homo sapiens, UniProt P30305); details: cited from earlier work
T1 sequence (P30305 1-580): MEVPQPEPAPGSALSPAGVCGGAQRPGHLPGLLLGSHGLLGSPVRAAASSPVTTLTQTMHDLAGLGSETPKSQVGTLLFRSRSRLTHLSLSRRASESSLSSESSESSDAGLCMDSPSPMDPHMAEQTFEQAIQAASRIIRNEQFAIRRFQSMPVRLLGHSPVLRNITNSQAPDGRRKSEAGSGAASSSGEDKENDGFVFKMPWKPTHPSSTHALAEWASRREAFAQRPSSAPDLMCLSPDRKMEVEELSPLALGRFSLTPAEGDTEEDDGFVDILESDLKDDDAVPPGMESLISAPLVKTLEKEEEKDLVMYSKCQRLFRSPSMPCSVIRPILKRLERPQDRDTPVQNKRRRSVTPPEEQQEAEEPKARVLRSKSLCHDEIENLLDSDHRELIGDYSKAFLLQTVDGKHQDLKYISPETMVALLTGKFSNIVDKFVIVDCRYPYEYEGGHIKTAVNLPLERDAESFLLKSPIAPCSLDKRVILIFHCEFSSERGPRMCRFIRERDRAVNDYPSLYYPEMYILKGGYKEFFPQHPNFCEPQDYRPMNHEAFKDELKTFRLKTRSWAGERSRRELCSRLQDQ

[3] = Preliminary toxicity assays in NSG mice; format: in vivo
Source text: In vivo experiments. Animals were used in accordance to a protocol reviewed and approved by the Institutional Animal Care and User Ethical Committee of the UMS006 and Region Midi-Pyrénées (Approval#13-U1037-JES08). NOD/LtSz-scid IL-2Rγchainnull (NSG) mice (Sanchez P V et al) were produced at the Genotoul Anexplo platform in Toulouse (France) using breeders obtained from The Charles River Laboratory. Mice were housed in sterile conditions using HEPA filtered micro-isolators and fed with irradiated food and acidified water. Transplanted mice were treated with antibiotics (enrofloxacin) for the duration of the experiment. […] Adult mice (6 or 7-week old) were treated with 20 mg/kg Busulfan (Busilvex, Pierre Fabre, France) by i.p. administration 24 hours before injection of leukemic cells. Cultured MOLM-14 cells were washed in PBS and cleared of aggregates and debris using a 0.2 mm cell filter, and suspended in PBS at a final concentration of 2 million cells per 200 μL of PBS per mouse for i.v. injection. IRC-083864 (5 mg/kg/week) was then administrated to leukemic mice by i.p. injection. Daily monitoring of mice for symptoms of disease (ruffled coat, hunched back, weakness and reduced motility) determined the time of animal euthanasia. Cell differentiation was monitored after two IRC-083864 injections: mice were humanely killed in accordance with IACUC protocols. […]

[4] = system: FLT3-ITD primary AML cells from patients; assay: Differentiation of FLT3-ITD primary AML samples; format: cell-based, human
Procedure: (a) 4 primary samples from patients carrying the FLT3-ITD mutation (ITD #1-4) were treated for 6 days with IRC-083864 (100 nM), and the expression of CD14 (upper panel) and CD15 (lower panel) was followed by flow cytometry analysis. (b) Quantification (mean±SEM, n=4) of CD14 and CD15 expression in response to IRC-083864. (c) The morphology of primary cells from patients used in (a) was analyzed by microscopy after 6 days and 9 days of treatment with IRC-083864. Original magnification ×100.
Patient samples. Patient AML samples were obtained after informed consent in accordance with the Declaration of Helsinki and stored at the HIMIP collection. According to the French law, HIMIP collection has been declared to the Ministry of Higher Education and Research (DC 2008-307 collection 1) and obtained a transfer agreement (AC 2008-129) after approbation by ethical committees (Comité de Protection des Personnes Sud-Ouest et Outremer II and APHP ethical committee). […]
Flow cytometry. Apoptotic cells were detected with Annexin V-FITC detection kit from BD Pharmingen (San Diego, Calif., USA) according to the manufacturer instructions. […] Data were collected on a LSRII or a LSRFortessa cytometer (BD Biosciences), and analyzed with FlowJo software. […]

In the case of `Cc1nc2c(s1)C(=O)C=C(NCCCN(C)CCCNC1=CC(=O)c3nc(-c4cc(F)ccc4F)oc3C1=O)C2=O` [IRC-083864], the “clonogenic potential of FLT3-ITD positive primary cells” value [1] is listed as “significantly reduced”, the “IC50 Cdc25 enzyme type B2” value ([2]; B2) is listed as “nanomolar range” and the “IC50 Cdc25 enzyme type B3” value ([2]; B3) is listed as “nanomolar range”. For the same compound, the “toxicity in male versus female NSG mice” value [3] was “higher toxicity”, the “expression of CD14” value ([4]; 100 nM, 6 days) was “increased” and the “morphology of primary cells” value ([4]; days 6 and 9) was “monocytic-like morphological nuclear changes”.
